Measured values published in article PMC3026800, “Mechanism of Inhibition of Enveloped Virus Membrane Fusion by the Antiviral Drug Arbidol” (PLoS ONE, 2011).

Test system: HApp (pseudoparticles harbouring the influenza hemagglutinin)
Format: cell-based
Settings: 11.3 µM arbidol

CCOC(=O)c1c(CSc2ccccc2)n(C)c2cc(Br)c(O)c(CN(C)C)c12.Cl [Arb, 1H-indole-3-carboxylic acid, 6-bromo-4-[(dimethylamino)-methyl]-5-hydroxy-1-methyl-2-[(phenylthio)methyl]-, ethyl ester, monohydrochloride]
Sensitivity of pseudoparticle entry to arbidol: sensitive
